Experimental data: patent US7754896B2, “Indol-alanine derivatives as selective S1P4-agonists” (Novartis AG, priority 2004, dated 2010)

Target: T1, S1P4 (Homo sapiens, UniProt O95977)
T1 construct: expressed in transfected cells
T1 sequence (O95977 1-384): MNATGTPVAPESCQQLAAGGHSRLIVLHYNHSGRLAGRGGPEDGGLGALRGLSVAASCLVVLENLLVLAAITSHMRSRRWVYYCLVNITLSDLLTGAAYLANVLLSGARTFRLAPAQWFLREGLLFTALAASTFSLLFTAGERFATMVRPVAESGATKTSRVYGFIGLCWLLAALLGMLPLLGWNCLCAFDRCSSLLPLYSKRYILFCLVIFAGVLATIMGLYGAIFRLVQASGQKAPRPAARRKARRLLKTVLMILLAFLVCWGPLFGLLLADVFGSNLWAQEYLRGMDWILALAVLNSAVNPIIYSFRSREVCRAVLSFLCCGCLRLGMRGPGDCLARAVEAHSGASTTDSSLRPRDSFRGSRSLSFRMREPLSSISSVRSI
Assay: Calcium mobilization assay, CHO cells expressing S1P4
Format: cell-based
Description: An expression vector for the human S1P4 gene (HSEDG4; GenBank Accession Number AJ000479) fused to the c-myc peptide tag at the C-terminus is obtained as described in Van Brocklyn et al. 2000, Blood 95(8), 2624. The encoding DNA for the S1P4-myc fusion protein is cloned in the mammalian expression vector pRc/CMV (Invitrogen), which confers G418 resistance for the selection of stable mammalian cells. The DNA sequence of the S1P4 insert is determined on both strands. […] The S1P4-myc cDNA is inserted into the pRc/CMV vector using HindIII/XbaI.
To develop stable cell lines expressing the c-myc tagged S1P4 receptor 5 μg of plasmid pRc/CMV myc-S1P4 is cut using restriction endonuclease PvuI, which cleaves the plasmid once. The linearized plasmid is then precipitated using a final concentration of 0.3M sodium acetate, pH5.0 and 66% ethanol. […] Individual clones that grew after the sort and selection procedure are expanded and one clone is finally selected based on the level of S1P4 mRNA expression determined by TaqMan quantitative PCR analysis.
CHO cells are plated in black Costar plate (96 or 384 well, 50,000 cells or 12,500 cells, respectively) in a MEM with FCS and cultured for 20-24 h at 37° C. in a CO2 incubator. […] After measuring the baseline for 40 sec, the agonist in HBSS is added and the fluorescence is measured at intervals of 2 sec for 3 to 5 min. […]

## NC(CNC(=O)c1cc2c(-c3ccccc3Cc3ccccc3)cccc2[nH]1)C(=O)O (stereo not shown) [Example 2]
  EC50: 10 nM
